# Experimental data reported in PubChem BioAssay AID1919003 (Molecular Pharmacology Branch, DTP, NCI, 2023).
# Several values for one entry are separate records, joined by “and”; a condition that tells them apart may be missing. Identical values can stand only once.
# System: 786-0 complex spheroids with HUVEC/MSC, growth % test/control
# Assay: Anticancer human tumor 786-0 cell line growth inhibition [AhR];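 further: compound exposure lasted seven days before the read-out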
# Settings: for viability, T/C: stronger effect = lower value
# Source text: Multicellular complex tumor spheroid response to aryl hydrocarbon receptor antagonists in combination with a variety of drugs and investigational agents in selected tumor cell lines
# The current study was undertaken to assess response to aryl hydrocarbon receptor antagonists in combination with standard-of-care drugs and investigational agents in solid tumor complex spheroid models. Complex spheroids include a stromal component modeled by human endothelial cells (HUVEC) and fibroblasts modeled by human mesenchymal stem cells (MSCs). The concentration ranges selected for each drug and investigational agent were based upon clinically achievable concentrations if the clinical Cmax of the agent was known.
# Compounds. The drugs and investigational agents: BAY 2416964 (NSC825713), GNF351 (NSC835774), CH-223191 (NSC835775), CPI-455 (NSC825282), aza-TdCyd (NSC777586), decitabine (NSC127716), belinostat (NSC758774), entinostat (NSC756642), pevonedistat (NSC761192), tazemetostat (NSC777109), talazoparib (NSC765396), olaparib (NSC753686), selinexor (NSC780203), nedisertib (M3814, NSC802822), bortezomib (NSC756655), venetoclax (NSC766270), doxorubicin (NSC123127), elimusertib (BAY189344, NSC800525), ceralasertib (AZD6738, NSC777638), TAK-243 (NSC785004), alisertib (NSC759677), etoposide (NSC141540), topotecan (NSC609699), eribulin (NSC707389), gemcitabine (NSC613327), carboplatin (NSC241240), cisplatin (NSC119875), and SN-38 (NSC673596) were obtained from the National Cancer Institute (NCI) Developmental Therapeutics Program Chemical Repository (32). The FDA-approved anticancer drug set is available from the Developmental Therapeutics Program at https://dtp.cancer.gov/organization/dscb/obtaining/available plates.htm. […] The stock solutions were prepared in dimethyl sulfoxide (DMSO, Sigma-Aldrich, St. Louis, MO, cat. D2650), except for the platinum compounds which were prepared in saline (Quality Biological, Gaithersburg, MD, cat. 114-055-101), at 800-fold the tested concentration and stored at -70 degrees C prior to their use. All drugs and investigational agents were tested over a range starting from a high concentration at or near the clinical Cmax and decreasing in half-log increments. If the clinical Cmax for an agent had not been determined, the highest concentration tested was 10 microM (Table 1).
# Cell Culture. All cells were maintained in an incubator at 37 degrees C and 5% CO2 with 95% humidity. The PDC lines were cultured according to standard operating procedures established by the NCI PDMR (https://pdmr.cancer.gov). Briefly, all PDCs were thawed and cultured in Matrigel-coated flasks prepared with a working solution of 1X Ham's F-12 nutrient mix, without supplementation (Invitrogen, Waltham, MA, cat. 11765054), 100 U/mL penicillin-streptomycin (Invitrogen, cat. 15140122), and 2.5% Matrigel (Corning Inc., Corning, NY, cat. 354248) for the first three passages. All PDCs were cultured in complete DMEM/F-12 media containing advanced DMEM/F-12 (Invitrogen, cat. 12634028), 4.9% defined fetal bovine serum, heat inactivated (HyClone Laboratories Inc., Logan, UT, cat. SH30070.03HI), 389 ng/mL hydrocortisone (Sigma-Aldrich, cat. H4001), 9.7 ng/mL human EGF recombinant protein (Invitrogen, cat. PHG0313), 23.4 microg/mL adenine (Sigma-Aldrich, cat. A2786), 97.3 U/mL penicillin-streptomycin (Invitrogen, cat. 15140122), 1.9 mM L-glutamine (Invitrogen, cat. 25030081), and 9.7 microM Y-27632 dihydrochloride (Tocris Bioscience, Bristol, United Kingdom, cat. 1254). The PDCs were cultured in complete DMEM/F12 media without 10 microM Y-27632 dihydrochloride for at least two passages prior to the screen. The established cell lines NCI-H1341 and […] were cultured in DMEM/F-12, HEPES (Invitrogen, cat. 11330032), 5% defined fetal bovine serum (HyClone Laboratories Inc., cat. SH30070.03), ITS premix universal culture supplement [insulin (5 microg/mL), transferrin (5 microg/mL), and selenious acid (5 ng/mL)] […]
# [1] = curve of first compound, second compound 0.1 µM
# [2] = curve of first compound, second compound 0.316 µM
# [3] = curve of first compound, second compound 1 µM
# [4] = curve of first compound, second compound 3.16 µM
# [5] = curve of first compound, second compound 10 µM
# [6] = second compound 0.1 µM, first compound 0.0316 µM
# [7] = second compound 0.1 µM, first compound 0.1 µM
# [8] = second compound 0.1 µM, first compound 0.316 µM
# [9] = second compound 0.1 µM, first compound 1 µM
# [10] = second compound 0.1 µM, first compound 3.16 µM
# [11] = second compound 0.1 µM, first compound 10 µM
# [12] = second compound 0.316 µM, first compound 0.0316 µM
# [13] = second compound 0.316 µM, first compound 0.1 µM
# [14] = second compound 0.316 µM, first compound 0.316 µM
# [15] = second compound 0.316 µM, first compound 1 µM
# [16] = second compound 0.316 µM, first compound 3.16 µM
# [17] = second compound 0.316 µM, first compound 10 µM
# [18] = second compound 1 µM, first compound 0.0316 µM
# [19] = second compound 1 µM, first compound 0.1 µM
# [20] = second compound 1 µM, first compound 0.316 µM
# [21] = second compound 1 µM, first compound 1 µM
# [22] = second compound 1 µM, first compound 3.16 µM
# [23] = second compound 1 µM, first compound 10 µM
# [24] = second compound 3.16 µM, first compound 0.0316 µM
# [25] = second compound 3.16 µM, first compound 0.1 µM
# [26] = second compound 3.16 µM, first compound 0.316 µM
# [27] = second compound 3.16 µM, first compound 1 µM
# [28] = second compound 3.16 µM, first compound 3.16 µM
# [29] = second compound 3.16 µM, first compound 10 µM
# [30] = second compound 10 µM, first compound 0.0316 µM
# [31] = second compound 10 µM, first compound 0.1 µM
# [32] = second compound 10 µM, first compound 0.316 µM
# [33] = second compound 10 µM, first compound 1 µM
# [34] = second compound 10 µM, first compound 3.16 µM
# [35] = second compound 10 µM, first compound 10 µM
compound,measurement,setting,value
CC(C)c1c(-c2ccccc2)nc2c(C#N)c[nH]n2c1=O + CC(CO)NC(=O)c1cc(-c2ccc(Cl)cc2)nn(-c2cnn(C)c2)c1=O,IC50,[1],> 10 µM
same,IC50,[2],> 10 µM
same,IC50,[3],> 10 µM
same,IC50,[4],> 10 µM
same,IC50,[5],> 10 µM
same,"viability, T/C",[6],98%
same,"viability, T/C",[7],95.9%
same,"viability, T/C",[8],104%
same,"viability, T/C",[9],106%
same,"viability, T/C",[10],93.7%
same,"viability, T/C",[11],104%
same,"viability, T/C",[12],95%
same,"viability, T/C",[13],101%
same,"viability, T/C",[14],93.2%
same,"viability, T/C",[15],95.1%
same,"viability, T/C",[16],92.3%
same,"viability, T/C",[17],90%
same,"viability, T/C",[18],99.9%
same,"viability, T/C",[19],99.1%
same,"viability, T/C",[20],105%
same,"viability, T/C",[21],104%
same,"viability, T/C",[22],107%
same,"viability, T/C",[23],96.2%
same,"viability, T/C",[24],100%
same,"viability, T/C",[25],96.5%
same,"viability, T/C",[26],97.9%
same,"viability, T/C",[27],99.5%
same,"viability, T/C",[28],106%
same,"viability, T/C",[29],101%
same,"viability, T/C",[30],118%
same,"viability, T/C",[31],105%
same,"viability, T/C",[32],105%
same,"viability, T/C",[33],108%
same,"viability, T/C",[34],103%
same,"viability, T/C",[35],125%
Nc1ccccc1NC(=O)c1ccc(CNC(=O)OCc2cccnc2)cc1,"viability, T/C",compound 0.0316 µM,105% and 107% and 108%
same,"viability, T/C",compound 0.1 µM,102% and 106% and 113%
same,"viability, T/C",compound 0.316 µM,106% and 102% and 111%
same,"viability, T/C",compound 1 µM,113% and 108% and 114%
same,"viability, T/C",compound 3.16 µM,73.9% and 96.8% and 86.7%
same,"viability, T/C",compound 10 µM,25.2% and 36.6% and 21.4%
same,IC50,curve of compound,5.56 µM and 7.78 µM and 6.04 µM
Nc1ccccc1NC(=O)c1ccc(CNC(=O)OCc2cccnc2)cc1 + CC(CO)NC(=O)c1cc(-c2ccc(Cl)cc2)nn(-c2cnn(C)c2)c1=O,IC50,[1],5.28 µM
same,IC50,[2],5.23 µM
same,IC50,[3],4.78 µM
same,IC50,[4],4.6 µM
same,IC50,[5],4.08 µM
same,"viability, T/C",[6],107%
same,"viability, T/C",[7],104%
same,"viability, T/C",[8],110%
same,"viability, T/C",[9],104%
same,"viability, T/C",[10],73.8%
same,"viability, T/C",[11],20.3%
same,"viability, T/C",[12],114%
same,"viability, T/C",[13],99.3%
same,"viability, T/C",[14],113%
same,"viability, T/C",[15],101%
same,"viability, T/C",[16],76.7%
same,"viability, T/C",[17],15.9%
same,"viability, T/C",[18],101%
same,"viability, T/C",[19],112%
same,"viability, T/C",[20],98.1%
same,"viability, T/C",[21],104%
same,"viability, T/C",[22],68.5%
same,"viability, T/C",[23],16.9%
same,"viability, T/C",[24],111%
same,"viability, T/C",[25],110%
same,"viability, T/C",[26],110%
same,"viability, T/C",[27],92%
same,"viability, T/C",[28],65.7%
same,"viability, T/C",[29],18.8%
same,"viability, T/C",[30],113%
same,"viability, T/C",[31],114%
same,"viability, T/C",[32],102%
same,"viability, T/C",[33],96.4%
same,"viability, T/C",[34],58%
same,"viability, T/C",[35],18.8%
